Measurements published in patent publication US10722503B2, “Glitazones for topical application” (priority 2017, dated 2020).

How the values were obtained:
[1] = tested on: keratosis pilaris (KP); test: Topical treatment of keratosis pilaris (KP) in patients, severity grading; assay type: in vivo, human; conditions: formulation similar to that of Example 1, glitazone substituted for pioglitazone
Source text: Prior to treatment, the severity of the KP condition was graded. […]

[2] = tested on: SEB-1 sebocytes; test: In vitro treatment of cultured sebocytes, intracellular lipids (ADIPORED fluorescence normalized to DAPI cell count); assay type: cell-based; conditions: formulation similar to that of Example 1, glitazone substituted for pioglitazone
Procedure: Cultured SEB-1 sebocytes (Xia et al., Dermato-Endocrinology, 1(2):92-95 (2009)) were treated with the pioglitazone formulation of Example 1. Sebocytes were cultured in 96 wells plates (2500 cells/well), until confluency. Plates were washed twice with warm sterile PBS and then incubated (at 37° C. and 5% CO2) for another 48 hours after treating them with the pioglitazone formulation in treatment media. After 48 hours, media was carefully removed from the plates and, after washing with PBS, ADIPORED™ reagent (Lonza Walkersville, Inc., Walkersville, Md.) was carefully added into each well. The plates were read for intracellular lipids using a spectrofluorometer. The lipid fluorescence was normalized against the total cell count that was performed using DAPI staining. Following treatment, the lipid content in the treated sebocytes was determined to have increased by 27% compared to control untreated sebocytes. The increased lipid content was confirmed by determining the expression of SREBP-1, a lipid synthesis transcription factor.

Row | Compound | results of Examples 2 and 3 (KP treatment) repeated with another glitazone formulation [1] | results of Example 4 (sebocyte lipid content) repeated with another glitazone formulation [2]
1 | O=C1NC(=O)C(Cc2ccc3cc(OCc4ccccc4F)ccc3c2)S1 (stereo not drawn) [netoglitazone] | Results similar to those obtained in Examples 2 to 4 using pioglitazone | Results similar to those obtained in Examples 2 to 4 using pioglitazone
2 | COc1ccc2nc(COc3ccc(CC4SC(=O)NC4=O)cc3)n(C)c2c1 (stereo not drawn) [rivoglitazone] | Results similar to those obtained in Examples 2 to 4 using pioglitazone | Results similar to those obtained in Examples 2 to 4 using pioglitazone
3 | COc1ccc(Oc2cc(N(C)CCOc3ccc(CC4SC(=O)NC4=O)cc3)ncn2)cc1 (stereo not drawn) [lobeglitazone] | Results similar to those obtained in Examples 2 to 4 using pioglitazone | Results similar to those obtained in Examples 2 to 4 using pioglitazone
